Here are results for one compound from patent publication US20120238532A1, “TREATMENT OF HUMAN OSTEOSARCOMA” (CEDARS-SINAI MEDICAL CENTER, priority 2009, published 2012).

In one data set the test system is MG-63 cells. Description: MTT assay, MG-63 (dose-response, pulse-exposure, combination). To be noted: pulse-exposed at ED50 for 2, 9, and 20 hours. In kind it is cell-based, human. How it is done:
7 human OS cell lines (U2OS, G292, MG-63, HT-161, HOS, SAOS-2, and SJSA) were used in the study. Each cell line except HT-161 was obtained from the American Type Culture Collection (ATCC, Rockville, Md.). HT-161 was obtained from Dr. Emil Bogenmann (13). All cell lines were tested and authenticated prior to use according to cell line verification test recommendations by ATCC. OS cell lines were maintained in DMEM medium (Mediatech Inc., Herndon, Va.) supplemented with 10% fetal bovine serum (FBS; Atlanta Biological, Lawrenceville, Ga.) in a humidified incubator at 37° C. supplied with 5% CO2. Only the cells in exponential growth phase were used in the study.
Cell growth and survival were measured by 3-(4,5-dimethylthiazol-2-yl)-2,5-diphenyltetrazolium bromide (MTT) assay. […] After 48 hours of incubation, 10 μl of 5 mg/ml MTT solution (Sigma-Aldrich, St. Louis, Mo.) was added to each well and incubated further for 2 hours. […] For pulse-exposure experiments, MG-63 and SAOS-2 cells were seeded in 96-well plates and exposed to CuB at their ED50. After 2, 9, and 20 hours of exposure, cells were washed twice with PBS and incubated further in CuB-free media. Cell growth was checked by MTT assay at 24, 48, and 72 hours.
Calcusyn 2.0 (Biosoft, Ferguson, Mo.) was used for CI analysis.
On the technique in general: Formazan colour is commonly taken as a measure of viable cells.

For data set [1], the system named is SAOS-2 cells. The experiment in a line: Cell cycle analysis (PI, FACS), SAOS-2. In kind it is cell-based, human. How it is done: Cells were harvested and fixed with 70% ethanol at regular time intervals. Fixed cells were stained with propidium iodide (PI) for flow cytometry analysis using BD FACScan (BD Biosciences, San Jose, Calif.). Distribution of cell cycle was analyzed by ModFit LT V2.0 software (Verity Software House, Topsham, Me.). […] After 24, 48, and 72 hours of exposure, cells were harvested and stained with PI and fluorescein isothiocyanate (FITC) using Annexin V-FITC apoptosis detection kit (BD Biosciences) according to the manufacturer's protocol. Cells were subjected to flow cytometry analysis within one hour of staining.

The subject of data set [2] is SAOS-2 cells. Description: Morphological changes (crystal violet staining), SAOS-2. The class given is cell-based, human. As for the experimental part: FIG. 2. (A) Graphical representation of the effect of CuB on MG-63 and SAOS-2 cells. Cells were exposed to CuB at their ED50 (70 nM for MG-63 and 50 nM for SAOS-2 cells). Time-dependent antiproliferative activity of CuB on MG-63 and SAOS-2 cells measured by pulse-exposure experiments. Cells were exposed to CuB for 2, 9, or 20 hours, washed extensively, and cultured in the absence of CuB for an additional 24, 48, and 72 hours. Cell growth was measured by MTT assay. Measurements were repeated in triplicates. Data represent mean±SD. Asterisks (**) represent p<0.001 vs DMSO control by t-test. (B) Morphological changes of MG-63 and SAOS-2 cells after exposure to cucurbitacin B. Cells with normal morphology (top) were compared to rounded cells (middle) and multinucleated cells (bottom). […] Representative cells are shown. 400×; scale bar=50 μm. (C) Graphical representation of G2/M cell cycle arrest after 20 hours of exposure to cucurbitacin B. Cells were stained with propidium iodide (PI) and analyzed by FACS. (D) Graphical representation of apoptosis after 72 hours of exposure to cucurbitacin B. Cells were stained with PI and Annexin V-FITC, and analyzed by FACS.

For the next data set, the target named is T1, ERK protein (Homo sapiens, UniProt P28482).
T1 construct: confluent MG-63 cells were harvested and lysed with lysis buffer; endogenous in cells; host or cells: MG-63 whole-cell lysate
Description: DARTS analysis, ERK. The class given is binding. To be noted: MG-63 lysates; data not shown.

The next data set concerns ERK. Description: Western blotting, ERK phosphorylation. To be noted: MG-63 and SAOS-2 cells. In kind it is cell-based, human. How it is done:
(§1) Changes in protein level by CuB were checked by Western blotting. […] After 2, 9, and 20 hours of exposure, cells were harvested and immediately lysed with RIPA buffer (Millipore—Upstate, Temecula, Calif.) supplemented with protease inhibitor cocktail (Roche, San Francisco, Calif.), 0.5 mM PMSF (Roche), and 50 mM NaF (Sigma). After 20 minutes of incubation on ice, protein concentrations were measured by Bradford assay with Bio Rad protein assay solution (Bio-Rad, Hercules, Calif.) and samples were adjusted to the same protein concentration. Samples were mixed with 2× Laemmli sample buffer (Bio-Rad) with 5% β-mercaptoethanol (Sigma) and incubated at 95° C. for 10 min to denature the protein. After brief incubation on ice, proteins were separated by SDS-PAGE, transferred to nitrocellulose membrane (Sigma), and blotted with antibodies from either Cell Signaling Technology (Danvers, Mass.) or Santa Cruz Biotechnology (Santa Cruz, Calif.). Target proteins were visualized by Supersignal West Dura Substrate (Thermo-Pierce, Rockford, Ill.). GAPDH protein was used as a loading control.
A general note: A western blot detects proteins with antibodies after separation by electrophoresis.

The subject of data set [3] is poly ADP-ribose polymerase (PARP). Description: Western blotting, PARP cleavage. The class given is cell-based, human. To be noted: MG-63 and SAOS-2 cells. As for the experimental part:
as §1

The test system of the next data set is MG-63 xenografts. Description: Immunohistochemistry of xenografts (HE, Ki-67, TUNEL). The class given is in vivo, mice. To be noted: LD-CuB 0.5 mg/kg; day 35. The source says:
(§2) At autopsy, tumors and internal organs including liver, spleen, kidneys were excised, weighed, and then fixed in 10% PBS-buffered formalin and maintained in 70% ethanol. For IHC, fixed tumors and organs were embedded in paraplast (Oxford Labware, St. Louis, Mo.), cut in 6 μm thick sections, and stained with hematoxylin and eosin (HE) for histopathological examination.
For Ki-67 proliferation assay, tumor sections were deparaffinized with xylene and rehydrated through graded ethanol. Endogenous peroxidase activity was blocked with 3% hydrogen peroxide in methanol. […] After incubation, tumor sections were stained with diaminobenzidine (DAB) and counterstained with hematoxylin. Terminal deoxynucleotidyl transferase dUTP nick end labeling (TUNEL) apoptosis assay was performed using ApopTaq Plus Peroxidase In Situ Apoptosis Kit (Millipore) according to the manufacturer's protocol. Percent positive cells in representative microscopic fields were counted using ImageJ (17).

A short description of the next data set: Organ weight in mice. In kind it is in vivo. To be noted: day 35.
Excerpt: as §2

T1 sequence (P28482 2-360 limits assumed): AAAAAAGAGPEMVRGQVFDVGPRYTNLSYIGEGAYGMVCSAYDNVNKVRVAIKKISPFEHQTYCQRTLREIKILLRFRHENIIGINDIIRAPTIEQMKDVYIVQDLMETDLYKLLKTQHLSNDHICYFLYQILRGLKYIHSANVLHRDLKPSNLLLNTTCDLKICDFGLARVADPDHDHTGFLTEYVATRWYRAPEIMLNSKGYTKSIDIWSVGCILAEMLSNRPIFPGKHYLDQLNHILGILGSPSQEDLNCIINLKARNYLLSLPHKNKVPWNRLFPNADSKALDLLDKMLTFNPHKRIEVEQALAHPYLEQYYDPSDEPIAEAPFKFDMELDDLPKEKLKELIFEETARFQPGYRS

In the case of `CC(=O)OC(C)(C)/C=C/C(=O)[C@](C)(O)[C@H]1[C@H](O)C[C@@]2(C)[C@@H]3CC=C4[C@H](C[C@H](O)C(=O)C4(C)C)[C@]3(C)C(=O)C[C@]12C` [CuB, cucurbitacin B], the “cell death after pulse-exposure” value with MG-63 cells was “longer exposure to CuB induced more cell death”. The “increase of G2/M phase” value in the data set with SAOS-2 cells [1] (20 hours of exposure) is on record as “around 3 fold”. Also, the G2/M phase in the data set with SAOS-2 cells [1] (20 hours of exposure at ED50 (control 15%)) was found to be 42%. Also, the morphological changes entry was “Rapid loss of pseudopodia and rounding” in the data set on SAOS-2 cells [2] (2 hour exposure); “multinuclearity which was not reversed by CuB removal” with SAOS-2 cells [2] (9 hour-exposure). For the same compound, the “protection of ERK protein (DARTS)” value on ERK protein was “could not find any evidence that the ERK protein was protected by CuB”. Further, the ERK phosphorylation entry in the data set with ERK was “inhibited ERK phosphorylation without changing the total levels of ERK in both cells”. The PARP cleavage entry in data set [3] is “showed cleavage of the precursor molecules in both cells”. Further, the HE-stained tumors entry in the data set with MG-63 xenografts was “decreased tumor area and smaller blood vessels”. For the same compound, the Kidney organ weight in “Organ weight in mice” (HD-CuB 1.0 mg/kg) was found to be 370 ± 1 mg; in “Organ weight in mice” (LD-CuB 0.5 mg/kg), 360 ± 1 mg. The Liver organ weight in “Organ weight in mice” (HD-CuB 1.0 mg/kg) amounted to 1260 ± 141 mg; in the data set “Organ weight in mice” (LD-CuB 0.5 mg/kg), 1250 ± 60 mg. For the same compound, the Spleen organ weight in the data set “Organ weight in mice” (HD-CuB 1.0 mg/kg) worked out at 110 ± 1 mg; in the data set “Organ weight in mice” (LD-CuB 0.5 mg/kg), 117 ± 6 mg.
